{"source": "patent US20070160684A1", "about": "“Methods for increasing cancer cell chemosensitivity” (priority 2005, published 2007)", "format_in_all_cases": "cell-based", "key": {"[1]": {"tested_on": "HeLa and HeLa/HMGA2 cells", "assay": "MTT cell viability assay", "details": "Dox 0-1 μM", "excerpt": "HS578T, HCC1419, and CHO cells"}, "Pa-4 cells": {"tested_on": "Pa-4 cells", "assay": "FACS cell cycle analysis (G2/M, sub-G1)", "method": "(§1) Pa-4 and Pa-4/HMGA2 cells were seeded at 50-80% confluency in 35 mm dishes and serum starved overnight to synchronize cell cycle. Synchronized cells were treated with 1 μM Dox or vehicle for 24 hours, then fixed in 70% ethanol overnight and stained with 20 μg/ml propidium iodide. The percentage of cells in G1 versus G2/M was then determined by FACS analysis at the Norris Cancer Center Flow Cytometry Core Facility using FACSCaliber (Becton Dickinson, Franklin Lakes, N.J.).\n(§2) Apoptosis of Pa-4 and Pa-4/HMGA2 cells was quantified by assessing the sub-G, cell population, a hallmark of cell apoptosis. The percentage of […] Pa-4/HMGA2 cells was increased five-fold 24 hours after Dox treatment, versus an increase of only two-fold in Pa-4 cells (FIG. 3A, panel e)."}, "Pa-4/HMGA2 cells [2]": {"tested_on": "Pa-4/HMGA2 cells", "assay": "FACS cell cycle analysis (G2/M, sub-G1)", "method": "as §1, §2"}, "[3]": {"tested_on": "p53 Ser-15 and Chk2 Thr-68 phosphorylation", "assay": "Western analysis of p53 and Chk2 phosphorylation in MO59J and MO59K cells", "method": "To establish the role of DNA-PK in Dox-induced p53 and Chk2 phosphorylation, MO59J (DNA-PKcs-deficient) and MO59K (DNA-PKcs-proficient) cells were treated with Dox, and their p53 and Chk2 phosphorylation profiles were probed."}, "H2AX phosphorylation [4]": {"tested_on": "H2AX phosphorylation", "assay": "Western analysis of H2AX phosphorylation in U2OS.GK41 cells", "details": "2 μM Dox, 1 hour and 2 hours, cells expressing ATR-kd", "method": "For experiments using U2OS.GK41 cells, cells were pre-treated with 1 μg/ml doxycycline for 48 […] to induce expression of ATR-kd. Non-induced control cells were pre-treated with vehicle only. Induced and non-induced cells were then treated with 2 μM Dox. At 1 hour and 2 hours after Dox treatment, cell lysates were removed and subjected to Western analyses using anti-phospho-H2AX or anti-actin antibodies."}, "H2AX phosphorylation [5]": {"tested_on": "H2AX phosphorylation", "assay": "Western analysis of H2AX phosphorylation in HeLa and HeLa/HMGA2 cells", "details": "Dox", "method": "To ascertain whether HMGA2 effects Dox-induced ATM signaling activation, phosphorylation of ATM Ser1981 and H2AX Ser139 was assayed in the presence and absence of Dox (2 μM in ATM assays, 1 μM in H2AX assays). At various timepoints after Dox treatment, cell lysates were removed and subjected to Western analyses using monoclonal anti-phospho-ATM antibodies (Ser1981), polyclonal anti-ATM antibodies (Santa Cruz Biotechnology, Santa Cruz, Calif.), monoclonal anti-phospho-H2AX antibodies ([…]) (Upstate Cell Signaling), or anti-H2AX antibodies. Control Western analyses were performed using monoclonal anti-actin antibodies. […] HeLa and HeLa/HMGA2 cells\nThe effect of HMGA2 on ATM and H2AX phosphorylation in HeLa cells was measured using the protocol described above. […] As for H2AX, results were similar to those observed in Pa-4 cells."}, "[6]": {"tested_on": "HepG2, Hep3B, and CL48 cells", "assay": "MTT cell viability assay", "details": "increasing concentrations, 72 hours", "method": "MTT assays were conducted as described above to assess the effect of HGMA2 expression on the sensitivity of HepG2, Hep3B, and CL48 cells to Dox or cisplatin. […] To exclude the possibility that HMGA2 increases chemosensitization in general, Taxol-induced cell growth inhibition was measured in HeLa and HeLa/HMGA2 cells. Taxol is a microtubule stabilizing agent (Slichenmyer 1991) commonly used as a chemotherapeutic agent for combating breast and ovarian cancers."}, "HMGA2/Ku70/Ku80 complex": {"tested_on": "HMGA2/Ku70/Ku80 complex", "assay": "Co-immunoprecipitation after Dox treatment"}, "Pa-4/HMGA2 cells [7]": {"tested_on": "Pa-4/HMGA2 cells", "assay": "FACS analysis after caffeine and Dox (G2/M, sub-G1)", "details": "4 mM caffeine or 1 μM Dox", "method": "Pa-4 and Pa-4/HMGA2 cells were seeded at 50-80% confluency in 35 mm dishes and serum starved overnight to synchronize cell cycle. […] Following treatment, cells were fixed in 70% ethanol overnight, stained with 20 μg/ml propidium iodide, and subjected to FACS analysis.\nApoptosis was quantified by assessing sub-G1 cell populations."}, "H2AX phosphorylation [8]": {"tested_on": "H2AX phosphorylation", "assay": "Western analysis of H2AX phosphorylation in pEBS7, YZ5, and MO59J cells", "details": "2 μM Dox for 2 hours", "method": "pEBS7, YZ5, and MO59J cells were treated with 2 μM Dox for 2 hours, at which point cell lysates were removed and subjected to Western analyses using anti-phospho-H2AX antibodies. Control Western analyses were performed using monoclonal anti-actin antibodies."}, "[9]": {"tested_on": "ATM Ser1981 phosphorylation", "assay": "Western analysis of ATM phosphorylation in Pa-4 and Pa-4/HMGA2 cells", "details": "2 μM Dox"}, "[10]": {"tested_on": "Ku70-deficient MEF cells and their wild-type counterparts", "assay": "MTT cell viability assay", "details": "increasing concentrations, 72 hours", "method": "To confirm the involvement of DNA-PK in mediating HMGA2 chemosensitization to Dox-induced DNA damage, MTT assays were conducted as described above on Ku70-deficient (Ku70^−/^−) MEF cells and their wild-type counterparts and on DNA-PKcs-deficient MO59J cells and DNA-PKcs-proficient MO59K cells."}, "topo IIα": {"tested_on": "topo IIα", "assay": "Western analysis of steady-state topo II levels in HS578T cells", "details": "1 μM Dox, various time points", "method": "HS578T cells were treated with 1 μM Dox, and at various time points cell lysates were removed and subjected to Western analyses using monoclonal anti-topo IIα antibody (BD Biosciences, San Jose, Calif.). Control Western analyses were performed using monoclonal anti-actin antibodies."}, "[11]": {"details": "1 μM Dox for 24 hours, synchronized cells"}, "[12]": {"details": "10 μM Dox for 30 minutes, HeLa/HMGA2 cells"}}, "data": [{"molecule": "COc1cccc2c1C(=O)c1c(O)c3c(c(O)c1C2=O)C[C@@](O)(C(=O)CO)C[C@@H]3O[C@H]1C[C@H](N)[C@H](O)[C@H](C)O1", "note": "[Dox, doxorubicin]", "values": [{"measurement": "cell viability, HeLa/HMGA2 versus HeLa", "setting": "[1]", "result": "HMGA2 expression enhancing the chemosensitivity of cells to Dox"}, {"measurement": "percentage of cells in G2/M phase", "setting": "Pa-4 cells; [11]", "result": 50.9, "unit": "%"}, {"measurement": "increase in apoptosis (sub-G1 cell population)", "setting": "Pa-4 cells; 24 hours after Dox treatment", "result": "two-fold"}, {"measurement": "percentage of cells in G2/M phase", "setting": "Pa-4/HMGA2 cells [2]; [11]", "result": 62.6, "unit": "%"}, {"measurement": "increase in apoptosis (sub-G1 cell population)", "setting": "Pa-4/HMGA2 cells [2]; 24 hours after Dox treatment", "result": "five-fold"}, {"measurement": "p53 phosphorylation at Ser-15", "setting": "[3]; Dox, MO59J and MO59K cells", "result": "robust p53 phosphorylation at Ser-15"}, {"measurement": "Chk2 phosphorylation at Thr-68", "setting": "[3]; MO59J cells, 2 hours post-Dox treatment", "result": "barely detectable"}, {"measurement": "induction of H2AX phosphorylation", "setting": "H2AX phosphorylation [4]", "result": "delay in Dox-mediated induction of H2AX phosphorylation"}, {"measurement": "induction of H2AX phosphorylation", "setting": "H2AX phosphorylation [5]", "result": "ablation of Dox-mediated induction of phosphorylation"}, {"measurement": "sensitivity, HepG2 and Hep3B versus CL48", "setting": "[6]", "result": "greater sensitivity to both Dox and cisplatin than HMGA2-underexpressing CL48 cells"}, {"measurement": "DNA-PKcs in the immunocomplexes of Ku80", "setting": "HMGA2/Ku70/Ku80 complex; [12]", "result": "enriched the amount of DNA-PKcs detected in the immunocomplexes of Ku80"}, {"measurement": "anti-Ku80-immunoprecipitated HMGA2", "setting": "HMGA2/Ku70/Ku80 complex; [12]", "result": "decrease in anti-Ku80-immunoprecipitated HMGA2"}, {"measurement": "interaction of endogenous HMGA2 with Ku80/Ku70", "setting": "HMGA2/Ku70/Ku80 complex; Dox, Hs578T cells", "result": "this interaction was disrupted upon Dox-treatment"}, {"measurement": "apoptosis (sub-G1 cell population), single agent", "setting": "Pa-4/HMGA2 cells [7]", "result": "substantially larger increase in Pa-4/HMGA2 cells"}, {"measurement": "cell cycle distribution / cells in G2/M, single agent", "setting": "Pa-4/HMGA2 cells [7]; 48 hours", "result": "greatly increased the number of cells in G2/M phase"}, {"measurement": "induction of H2AX phosphorylation", "setting": "H2AX phosphorylation [8]; YZ5 cells and MO59J cells", "result": "substantial increase in H2AX phosphorylation following Dox treatment"}, {"measurement": "induction of H2AX phosphorylation", "setting": "H2AX phosphorylation [8]; pEBS7 cells", "result": "lack of Dox-mediated induction"}, {"measurement": "ATM phosphorylation, Pa-4 versus Pa-4/HMGA2", "setting": "[9]", "result": "roughly equal in Pa-4 and Pa-4/HMGA2 cells"}, {"measurement": "ATM phosphorylation", "setting": "[9]; Pa-4 cells", "result": "rapid phosphorylation of ATM"}, {"measurement": "viability, Ku70-deficient versus wild type", "setting": "[10]", "result": "marked decrease in viability"}, {"measurement": "steady-state topo II levels", "setting": "topo IIα", "result": "remained comparable over the time course of Dox treatment"}]}]}
